Reference: paper PMC8409435 (Journal of molecular biology, 2021)
Where no end group is shown, it is not given here.

Legend:
[1] = target: PKA-C^E31V (catalytic α subunit of cAMP-dependent protein kinase A) (Homo sapiens, UniProt P17612, E32V); experiment: steady-state coupled enzyme assay; format: biochemical
[2] = target: PKA-C^WT (catalytic α subunit of cAMP-dependent protein kinase A) (Homo sapiens, UniProt P17612); experiment: steady-state coupled enzyme assay; format: biochemical

LRRASLG [Kemptide]
steady-state coupled enzyme assay (kcat/KM) [1]: 0.46 ± 0.04
steady-state coupled enzyme assay (kcat/KM) [2]: 0.41 ± 0.05
